“Also recorded” adds a separate entry of the source. Read-outs that look alike come from different tables or passages of the source.
How the values were obtained:
Type in all cases: in vivo
mice of the OF1 strain = experiment: Hypolipidemic activity: plasma cholesterol and plasma triglycerides in mice fed compound in chow; settings: for change in vivo at 180 mg/kg: Mus musculus, feed or water, 240 h
Experimental: With the goal of finding new drugs which might be hypolipidemic, the new diphosphonates described in this patent application were administered orally to mice. This rodent species has plasma lipid level relatively close to man (generally greater than 150 mg/dl). For example, in mice receiving a normal diet the plasma cholesterol and triglyceride levels are in the range of 100 mg/dl, whereas for rat the comparative values are close to 50 mg/dl.
In every screening experiment, 30 mice of the OF1 strain weighing 25 to 35 g were divided into 5 groups of 6 animals each. Four groups received the compounds to be tested, or the reference drugs, the fifth group served as control. Compounds were dissolved in diethyl ether, and solution was added to the pelleted food and the ether was evaporated.
All compounds were tested at the final concentration of 0.1% in animal chow, equivalent to a daily intake of about 180 mg/kg. This diet was fed for 10 days, then after an overnight fasting the animals were sacrified by decapitation under ether anesthesia. Blood samples were collected in EDTA containing tubes.
Plasma cholesterol and plasma triglycerides were measured by enzymatic methods (Ames kit No. 6376 and No. 6630).

[1] = system: spontaneously hypertensive rat (SHR); experiment: Oral hypotensive activity in spontaneously hypertensive rats (SHR); settings: for Percent change in blood pressure: 2 hours post dose, Table 5
Experimental: The spontaneously hypertensive rat (SHR) is a well established animal model of human arterial hypertension.
In screening experiments various gem-diphosphonates were dissolved in Tween-80 and administered orally to SH rats. Blood pressure was monitored hourly using a tailcuff method.

rat paw oedema = experiment: Anti-inflammatory activity: kappa carrageenan rat paw oedema model; settings: for Inhibition of rat right hind paw volume increase, % Change from control: 4 hours post oedema induction, test compounds 100 mg/kg, indomethacin 30 mg/kg by gavage 1 hour prior; for anti-inflammatory activity (in words): rat paw oedema, 4 hours
Experimental: The effect of four selected diphosphates was investigated on the inflammatory response to kappa carrageenan in the rat paw oedema model. Eight male rats were employed per group. Oedema was induced in the right hind paw of each animal by a single injection into the plantar aponeurosis of 0.1 ml of a 1% w/v of kappa carrageena solution dissolved in 0.9% NaCl. The test compounds (100 mg/kg) and reference drug (indomethacin 30 mg/kg) were administered by gavage 1 hour prior to induction of oedema by carrageanan injection.
The volume of the right paw was measured for each animal at 0, 1, 2.5 and 4 hours after carrageenan injection (only 4 hour values are reported.

[2] = read-out: Cholesterol (% control)
[3] = read-out: Triglycerides (% control)
[4] = mice, 0.1% in animal chow (about 180 mg/kg daily), 10 days, Table 3, given as change from control, read-out: Cholesterol (% control)
[5] = mice, 0.1% in animal chow (about 180 mg/kg daily), 10 days, Table 3, given as change from control, read-out: Triglycerides (% control)

SMILES: CCOP(=O)(OCC)C(Cc1cc(C(C)CC)c(O)c(C(C)CC)c1)P(=O)(OCC)OCC (centres unmarked) [Compound 3]
- change in vivo at 180 mg/kg (mice of the OF1 strain; [2]): -19%
- change in vivo at 180 mg/kg (mice of the OF1 strain; [3]): -46%
- decreased plasma triglycerides by (mice of the OF1 strain; mice, 0.1% in chow, 10 days): more than 44%
- hypocholesterolemic activity (in words) (mice of the OF1 strain; mice, 0.1% in chow, 10 days): hypocholesterolemic
- hypotriglyceridemia (in words) (mice of the OF1 strain; mice, 0.1% in chow, 10 days): significant hypotriglyceridemia
- Percent change in blood pressure [1]: -20%

SMILES: CCOP(=O)(OCC)C(Cc1cc(C(C)(C)C)c(O)c(C(C)(C)C)c1)P(=O)(OCC)OCC [Compound 4, Tetraethyl 2-(3,5-ditertiarybutyl-4-hydroxyphenyl)-ethylidene-1,1-diphosphonate]
- change in vivo at 180 mg/kg (mice of the OF1 strain; [2]): -12%
- change in vivo at 180 mg/kg (mice of the OF1 strain; [3]): -1%
- hypocholesterolemic activity (in words) (mice of the OF1 strain; mice, 0.1% in chow, 10 days): hypocholesterolemic
- Inhibition of rat right hind paw volume increase, % Change from control (rat paw oedema): +1.5 % Change from control
- hypotensive potency compared with reference drugs (in words) [1]: as potent as the reference drugs
- Percent change in blood pressure [1]: -34%

SMILES: CC(C)OP(=O)(OC(C)C)C(Cc1cc(C(C)(C)C)c(O)c(C(C)(C)C)c1)P(=O)(OC(C)C)OC(C)C [Compound 6]
- change in vivo at 180 mg/kg (mice of the OF1 strain; [2]): -37%
- change in vivo at 180 mg/kg (mice of the OF1 strain; [3]): -34%
- hypocholesterolemic activity (in words) (mice of the OF1 strain; mice, 0.1% in chow, 10 days): hypocholesterolemic
- hypotriglyceridemia (in words) (mice of the OF1 strain; mice, 0.1% in chow, 10 days): significant hypotriglyceridemia
- hypotensive potency compared with reference drugs (in words) [1]: as potent as the reference drugs
- Percent change in blood pressure [1]: -64%

SMILES: CCCCOP(=O)(OCCCC)C(Cc1cc(C(C)(C)C)c(O)c(C(C)(C)C)c1)P(=O)(OCCCC)OCCCC [Compound 7, Tetrabutyl 2-(3,5-ditertiary-4-hydroxyphenyl)-ethylidene-1,1-diphosphonate]
- change in vivo at 180 mg/kg (mice of the OF1 strain; [2]): -23%
- change in vivo at 180 mg/kg (mice of the OF1 strain; [3]): -15%
- hypocholesterolemic activity (in words) (mice of the OF1 strain; mice, 0.1% in chow, 10 days): hypocholesterolemic
- hypotriglyceridemia (in words) (mice of the OF1 strain; mice, 0.1% in chow, 10 days): significant hypotriglyceridemia
- hypotensive potency compared with reference drugs (in words) [1]: as potent as the reference drugs
- Percent change in blood pressure [1]: -30%

SMILES: CC(C)(C)c1cc(CC(P(=O)(O)O)P(=O)(O)O)cc(C(C)(C)C)c1O [Compound 8, 2-(3,5-ditertiarybutyl-4-hydroxyphenyl)-ethylidene-1,1-diphosphonic acid]
- change in vivo at 180 mg/kg (mice of the OF1 strain; [4]): -2%
- change in vivo at 180 mg/kg (mice of the OF1 strain; [5]): 19%
- Inhibition of rat right hind paw volume increase, % Change from control (rat paw oedema): -54.2 % Change from control
- anti-inflammatory activity (in words) (rat paw oedema): significant inhibitory activities; also recorded: anti-inflammatory

SMILES: CCCCOP(=O)(OCCCC)C(Cc1cc(C(C)(C)C)c(O)c(C(C)(C)C)c1)P(=O)(OCC)OCC (centres unmarked) [Compound 18]
- change in vivo at 180 mg/kg (mice of the OF1 strain; [2]): -31%
- change in vivo at 180 mg/kg (mice of the OF1 strain; [3]): 60%
- hypocholesterolemic activity (in words) (mice of the OF1 strain; mice, 0.1% in chow, 10 days): hypocholesterolemic
- hypotensive potency compared with reference drugs (in words) [1]: as potent as the reference drugs
- Percent change in blood pressure [1]: -41%

SMILES: CCOP(=O)(OCC)C(=Cc1cc(C(C)(C)C)c(O)c(C(C)(C)C)c1)P(=O)(OCC)OCC [Compound 33, Tetraethyl 2-(3,5-ditertiarybutyl-4-hydroxyphenyl)-ethenylidene-1,1-diphosphonate]
- change in vivo at 180 mg/kg (mice of the OF1 strain; [2]): -40%
- change in vivo at 180 mg/kg (mice of the OF1 strain; [3]): -21%
- hypocholesterolemic activity (in words) (mice of the OF1 strain; mice, 0.1% in chow, 10 days): hypocholesterolemic
- hypocholesterolemic potency (plasma cholesterol change) (mice of the OF1 strain; mice, 0.1% in chow, 10 days): -40%
- hypotriglyceridemia (in words) (mice of the OF1 strain; mice, 0.1% in chow, 10 days): significant hypotriglyceridemia
- Inhibition of rat right hind paw volume increase, % Change from control (rat paw oedema): -5.8 % Change from control

SMILES: CC(C)(C)c1cc(C=C(P(=O)(O)O)P(=O)(O)O)cc(C(C)(C)C)c1O [Compound 36]
- change in vivo at 180 mg/kg (mice of the OF1 strain; [4]): -9%
- change in vivo at 180 mg/kg (mice of the OF1 strain; [5]): -5%
- Inhibition of rat right hind paw volume increase, % Change from control (rat paw oedema): -25.0 % Change from control
- anti-inflammatory activity (in words) (rat paw oedema): significant inhibitory activities

SMILES: COc1ccc([C@@H]2Sc3ccccc3N(CCN(C)C)C(=O)[C@@H]2OC(C)=O)cc1 [Diltiazem, reference compound]
- Percent change in blood pressure [1]: -38%

SMILES: Cc1ccc(C)c(OCCCC(C)(C)C(=O)O)c1 [Gemfibrozil, reference compound]
- change in vivo at 180 mg/kg (mice of the OF1 strain; [4]): -7%
- change in vivo at 180 mg/kg (mice of the OF1 strain; [5]): -35%
- hypocholesterolemic activity (in words) (mice of the OF1 strain; mice, 0.1% in chow, 10 days): less hypocholesterolemic than many of the diphosphonates tested
- hypotriglyceridemic potency (plasma triglyceride change) (mice of the OF1 strain; mice, 0.1% in chow, 10 days): -35%

SMILES: COc1ccc2c(c1)c(CC(=O)O)c(C)n2C(=O)c1ccc(Cl)cc1 [Indomethacin, reference compound]
- Inhibition of rat right hind paw volume increase, % Change from control (rat paw oedema): -92.3 % Change from control
- anti-inflammatory activity (in words) (rat paw oedema): prevented completely the increase in paw volume

— patent US5128331A, “Method for lowering plasma lipid levels or blood pressure” (priority 1988, dated 1992)
